Source: patent US9458499B2, “Nucleic acid binding dyes and uses therefor” (PROMEGA CORPORATION, priority 2009, dated 2016)
Where a name gives a salt, the structure may show the parent alone.

Key:
Assay type in all cases: physicochemical
dsDNA = experiment: Quantum yield, absorbance and emission of dyes with dsDNA; conditions: for Em λ (ds DNA): Example 1; for absorbance λEx dsDNA / emission λmaxEM dsDNA: Table 1
ds DNA = experiment: Relative brightness of stains with ds DNA (protocol of Nygren et al.)
Method: (§1) The relative brightness of certain compounds (Table 2) was determined based on the protocol in Nygren, J., Svanvik, N., Kubista, M. (1998) Biopolymers, Vol. 46, 39-51, which is incorporated by reference herein.

ss DNA = experiment: Relative brightness of stains with ss DNA (protocol of Nygren et al.)
Method: as §1

| Structure (SMILES) | Em λ (ds DNA) (dsDNA) [nm] | quantum yield (Φ) dsDNA (dsDNA) | absorbance λEx dsDNA (dsDNA) [nm] | emission λmaxEM dsDNA (dsDNA) | Relative Brightness ds DNA (ds DNA) | Relative Brightness ss DNA (ss DNA) |
| --- | --- | --- | --- | --- | --- | --- |
| CN(C)CCCN(CCCN(C)C)C1=C/C(=C\c2sc3cccc4c3[n+]2CCC4)c2ccccc2N1c1ccccc1 [PBI 3646, 1-((2-(Bis(3-(dimethylamino)propyl)amino)-1-phenylquinolin-4(1H)-ylidene)methyl)-7,8-dihydro-6H-thiazolo[5,4,3-ij]quinolin-9-ium] | 531 | 0.43 | 504 | 531 |  |  |
| CCCN(CCCN(C)C)C1=C/C(=C\c2sc3cccc4c3[n+]2CCC4)c2ccccc2N1c1ccccc1 [PBI 3654, 1-((2-((3-(Dimethylamino)propyl)(propyl)amino)-1-phenylquinolin-4(1H)-ylidene)methyl)-7,8-dihydro-6H-thiazolo[5,4,3-ij]quinolin-9-ium] | 529 | 0.70 | 498 | 529 |  |  |
| CN(C)CCN(Cc1ccccc1)c1cc(/C=C2/Sc3cccc4c3N2CCC4)c2ccccc2[n+]1-c1ccccc1 [PBI 3666, 2-(benzyl(2-(dimethylamino)ethyl)amino)-4-((5,6-dihydrothiazolo[5,4,3-ij]quinolin-2(4H)-ylidene)methyl)-1-phenylquinolinium trifluoroacetate] |  | 0.34 | 494 | 535 |  |  |
| CCCCN(CCCN(C)C)c1cc(/C=C2/Sc3cccc4c3N2CCC4)c2ccccc2[n+]1-c1ccccc1 [PBI 3667, 2-(butyl(3-(dimethylamino)propyl)amino)-4-((5,6-dihydrothiazolo[5,4,3-ij]quinolin-2(4H)-ylidene)methyl)-1-phenylquinolinium trifluoroacetate] |  | 0.68 | 494 | 529 |  |  |
| CN(C)CCCN(CCCN(C)C)C1=C/C(=C\c2sc3cccc4c3[n+]2CCC4)c2ccccc2N1CCCc1ccccc1 [PBI 3675, 1-((2-(bis(3-(dimethylamino)propyl)amino)-1-(3-phenylpropyl)quinolin-4(1H)-ylidene)methyl)-7,8-dihydro-6H-thiazolo[5,4,3-ij]quinolin-9-ium] | 535 | 0.31 | 503 | 535 |  |  |
| CCN(CC)c1cc(/C=C2\Sc3cccc4c3N2CCC4)c2ccccc2[n+]1-c1ccccc1 [PBI 3676, 2-(diethylamino)-4-((5,6-dihydrothiazolo[5,4,3-ij]quinolin-2(4H)-ylidene)methyl)-1-phenylquinolinium trifluoroacetate] |  | 0.48 | 494 | 527 |  |  |
| CCCN(CCCN(C)C)c1cc(/C=C2\Sc3cccc4c3N2CCC4)c2ccccc2[n+]1Cc1ccccc1 [PBI 3677, 1-benzyl-4-((5,6-dihydrothiazolo[5,4,3-ij]quinolin-2(4H)-ylidene)methyl)-2-((3-(dimethylamino)propyl)(propyl)amino)quinolinium trifluoroacetate] |  | 0.72 | 494 | 533 |  |  |
| CCCN(CCCN(C)C)c1cc(/C=C2\Sc3cccc4c3N2CCC4)c2ccccc2[n+]1C [PBI 3678, 1-methyl-4-((5,6-dihydrothiazolo[5,4,3-ij]quinolin-2(4H)-ylidene)methyl)-2-((3-(dimethylamino)propyl)(propyl)amino)quinolinium trifluoroacetate] |  | 0.68 | 494 | 529 |  |  |
| CCCN(CCCN(C)C)c1cc(/C=C2/Sc3cccc4c3N2CCC4)c2ccccc2[n+]1CCCc1ccccc1 [PBI 3679, 4-((5,6-Dihydrothiazolo[5,4,3-ij]quinolin-2(4H)-ylidene)methyl)-2-((3-(dimethylamino)propyl)(propyl)amino)-1-(3-phenylpropyl)quinolinium] | 533 | 0.34 | 499 | 533 |  |  |
| COc1ccc2c(/C=C3\Sc4cccc5c4N3CCC5)cc(N(CCC[N+](C)(C)C)CCC[N+](C)(C)C)[n+](Cc3ccccc3)c2c1 [PBI 4050, 1-Benzyl-2-(bis(3-(trimethylammonio)propyl)amino)-4-((5,6-dihydrothiazolo[5,4,3-ij]quinolin-2(4H)-ylidene)methyl)-7-methoxyquinolinium] |  |  |  |  | 0.63 | 1.23 |
| COc1ccc2c(/C=C3\Sc4cccc5c4N3CCC5)cc(N(C)C)[n+](Cc3ccccc3)c2c1 [PBI 4051, 1-benzyl-4-((5,6-dihydrothiazolo[5,4,3-ij]quinolin-2(4H)-ylidene)methyl)-2-(dimethylamino)-7-methoxyquinolinium] |  |  |  |  | 0.67 | 1.10 |
| COc1ccc2c(/C=C3\Sc4cccc5c4N3CCC5)cc(N(CCC[N+](C)(C)C)CCC[N+](C)(C)C)[n+](C)c2c1 [PBI 4052, 2-(bis(3-(trimethylammonio)propyl)amino)-4-((5,6-dihydrothiazolo[5,4,3-ij]quinolin-2(4H)-ylidene)methyl)-7-methoxy-1-methylquinolinium] |  |  |  |  | 0.74 | 2.41 |
| CCCN(CCC[N+](C)(C)C)c1cc(/C=C2\Sc3cccc4c3N2CCC4)c2ccc(OC)cc2[n+]1-c1ccccc1 [PBI 4054, 4-((5,6-dihydrothiazolo[5,4,3-ij]quinolin-2(4H)-ylidene)methyl)-7-methoxy-1-phenyl-2-(propyl(3-(trimethylammonio)propyl)amino)quinolinium] |  |  |  |  | 1.19 | 3.10 |
| CCCN(CCCN(C)C)c1cc(/C=C2/Sc3ccccc3N2C)c2ccccc2[n+]1-c1ccccc1 [SYBR Green 1, reference compound] |  |  |  |  | 1 |  |
| CN(C)CCN(C)C1=C/C(=C\c2sc3cccc4c3[n+]2CCC4)c2ccccc2N1c1ccccc1 [compound 3568, 1-((2-((2-(Dimethylamino)ethyl)(methyl)amino)-1-phenylquinolin-4(1H)-ylidene)methyl)-7,8-dihydro-6H-thiazolo[5,4,3-ij]quinolin-9-ium] | 529 | 0.39 | 466 | 529 |  |  |
| CN1C=C/C(=C\c2sc3cccc4c3[n+]2CCC4)c2ccccc21 [compound 3632, 1-((1-Methylquinolin-4(1H)-ylidene)methyl)-7,8-dihydro-6H-thiazolo[5,4,3-ij]quinolin-9-ium] | 529 | 0.2 | 504 | 529 |  |  |
| CCCN(CCC[N+](C)(C)C)c1cc(/C=C2\Sc3cccc4c3N2CCC4)c2ccc(OC)cc2[n+]1C [compound 4053, 4-((5,6-dihydrothiazolo[5,4,3-ij]quinolin-2(4H)-ylidene)methyl)-7-methoxy-1-methyl-2-(propyl(3-(trimethylammonio)propyl)amino)quinolinium] |  |  |  |  | 1.26 | 1.82 |
